Legend:
[1] = 100 kPa, Liquid; for viscosity: Capillary tube (Ostwald / Ubbelohde) method; for mass density: Vibrating tube method
[2] = xn = mol fraction of the nth substance listed; conditions: 100 kPa, Liquid, x1 = 1; for viscosity: Capillary tube (Ostwald / Ubbelohde) method; for mass density: Vibrating tube method

CCC(C)CO (stereo not drawn) [2-methyl-1-butanol]
[1]
Conditions	mass density [kg/m3]	viscosity [mPa·s]
288.15 K	823.35	6.439
293.15 K	819.64	5.3
298.15 K	815.85	4.501
303.15 K	812.12	3.825
308.15 K	808.29	3.265
313.15 K	804.41	2.783
318.15 K	800.47	2.379
323.15 K	796.47	2.06
328.15 K	792.41	1.787

CCCCCO [pentan-1-ol]
[1]
Conditions	mass density [kg/m3]	viscosity [mPa·s]
288.15 K	818.56	4.698
293.15 K	814.92	4.043
298.15 K	811.26	3.501
303.15 K	807.57	3.028
308.15 K	803.86	2.671
313.15 K	800.11	2.335
318.15 K	796.32	2.052
323.15 K	792.48	1.81
328.15 K	788.61	1.607

CCCCCO [pentan-1-ol] + CCC(C)CO
[2]
Conditions	mass density [kg/m3]	viscosity [mPa·s]
288.15 K	818.56	4.698
293.15 K	814.92	4.043
298.15 K	811.26	3.501
303.15 K	807.57	3.028
308.15 K	803.86	2.671
313.15 K	800.11	2.335
318.15 K	796.32	2.052
323.15 K	792.48	1.81
328.15 K	788.61	1.607

CCCCCO [pentan-1-ol] + CCCC(C)O
[2]
Conditions	mass density [kg/m3]	viscosity [mPa·s]
288.15 K	818.56	4.698
293.15 K	814.92	4.043
298.15 K	811.26	3.501
303.15 K	807.57	3.028
308.15 K	803.86	2.671
313.15 K	800.11	2.335
318.15 K	796.32	2.052
323.15 K	792.48	1.81
328.15 K	788.61	1.607

CCCC(C)O (stereo not drawn) [pentan-2-ol]
[1]
Conditions	mass density [kg/m3]	viscosity [mPa·s]
288.15 K	813.34	5.057
293.15 K	809.38	4.174
298.15 K	805.35	3.398
303.15 K	801.24	2.82
308.15 K	797.05	2.336
313.15 K	792.78	1.99
318.15 K	788.42	1.706
323.15 K	783.99	1.472
328.15 K	779.46	1.306

CCCC(C)O (stereo not drawn) [pentan-2-ol] + CCC(C)CO
[2]
Conditions	mass density [kg/m3]	viscosity [mPa·s]
288.15 K	813.34	5.057
293.15 K	809.38	4.174
298.15 K	805.35	3.398
303.15 K	801.24	2.82
308.15 K	797.05	2.336
313.15 K	792.78	1.99
318.15 K	788.42	1.706
323.15 K	783.99	1.472
328.15 K	779.46	1.306
